Laboratory results taken from ChEMBL document CHEMBL1148995, “Antitumor agents from bohemic acid complex, VI. Schaunardimycin” (J Nat Prod, 1984).

Experiments:
[1] = system: Mus musculus; experiment: Toxicity in mouse L1210 cells implanted CDF1 mouse assessed as average weight gain at 0.8 mg/kg, ip qd for 1 to 5 days; format: organism-based; set-up: dose 0.8 mg/kg, route intraperitoneal; conditions: in vivo
[2] = system: Mus musculus; experiment: Toxicity in mouse L1210 cells implanted CDF1 mouse assessed as average weight gain at 12.8 mg/kg, ip single dose on day 1; format: organism-based; set-up: dose 12.8 mg/kg, route intraperitoneal; conditions: in vivo
[3] = system: Mus musculus; experiment: Toxicity in mouse L1210 cells implanted CDF1 mouse assessed as average weight gain at 0.2 mg/kg, ip single dose on day 1; format: organism-based; set-up: dose 0.2 mg/kg, route intraperitoneal; conditions: in vivo
[4] = system: L1210; experiment: Antitumor activity against mouse L1210 cells implanted in CDF1 mouse assessed as median survival time at 6.4 mg/kg, ip qd for 1 to 5 days; format: functional; conditions: route intraperitoneal
[5] = system: Mus musculus; experiment: Toxicity in mouse L1210 cells implanted CDF1 mouse assessed as survivors on day 5 at 0.2 mg/kg, ip single dose on day 1; format: organism-based; set-up: dose 0.2 mg/kg, route intraperitoneal; conditions: in vivo
[6] = system: L1210; experiment: Antitumor activity against mouse L1210 cells implanted in CDF1 mouse at 25.6 mg/kg, ip single dose on day 1 relative to control; format: functional; conditions: route intraperitoneal
[7] = system: L1210; experiment: Antitumor activity against mouse L1210 cells implanted in CDF1 mouse at 12.8 mg/kg, ip single dose on day 1 relative to control; format: functional; conditions: route intraperitoneal
[8] = system: L1210; experiment: Antitumor activity against mouse L1210 cells implanted in CDF1 mouse assessed as median survival time at 0.8 mg/kg, ip qd for 1 to 5 days; format: functional; conditions: route intraperitoneal
[9] = system: Mus musculus; experiment: Toxicity in mouse L1210 cells implanted CDF1 mouse assessed as survivors on day 5 at 1.6 mg/kg, ip qd for 1 to 5 days; format: organism-based; set-up: dose 1.6 mg/kg, route intraperitoneal; conditions: in vivo
[10] = system: L1210; experiment: Antitumor activity against mouse L1210 cells implanted in CDF1 mouse at 0.8 mg/kg, ip qd for 1 to 5 days relative to control; format: functional; conditions: route intraperitoneal
[11] = system: L1210; experiment: Antitumor activity against mouse L1210 cells implanted in CDF1 mouse at 0.4 mg/kg, ip single dose on day 1 relative to control; format: functional; conditions: route intraperitoneal
[12] = system: Mus musculus; experiment: Toxicity in mouse L1210 cells implanted CDF1 mouse assessed as average weight gain at 6.4 mg/kg, ip qd for 1 to 5 days; format: organism-based; set-up: dose 6.4 mg/kg, route intraperitoneal; conditions: in vivo
[13] = system: L1210; experiment: Antitumor activity against mouse L1210 cells implanted in CDF1 mouse assessed as median survival time at 0.4 mg/kg, ip qd for 1 to 5 days; format: functional; conditions: route intraperitoneal
[14] = system: Mus musculus; experiment: Toxicity in mouse L1210 cells implanted CDF1 mouse assessed as survivors on day 5 at 0.2 mg/kg, ip qd for 1 to 5 days; format: organism-based; set-up: dose 0.2 mg/kg, route intraperitoneal; conditions: in vivo
[15] = system: L1210; experiment: Antitumor activity against mouse L1210 cells implanted in CDF1 mouse assessed as median survival time at 1.6 mg/kg, ip single dose on day 1; format: functional; conditions: route intraperitoneal
[16] = system: L1210; experiment: Antitumor activity against mouse L1210 cells implanted in CDF1 mouse assessed as median survival time at 3.2 mg/kg, ip single dose on day 1; format: functional; conditions: route intraperitoneal
[17] = system: L1210; experiment: Antitumor activity against mouse L1210 cells implanted in CDF1 mouse at 0.2 mg/kg, ip single dose on day 1 relative to control; format: functional; conditions: route intraperitoneal
[18] = system: Mus musculus; experiment: Toxicity in mouse L1210 cells implanted CDF1 mouse assessed as survivors on day 5 at 6.4 mg/kg, ip qd for 1 to 5 days; format: organism-based; set-up: dose 6.4 mg/kg, route intraperitoneal; conditions: in vivo
[19] = system: Mus musculus; experiment: Toxicity in mouse L1210 cells implanted CDF1 mouse assessed as survivors on day 5 at 3.2 mg/kg, ip qd for 1 to 5 days; format: organism-based; set-up: dose 3.2 mg/kg, route intraperitoneal; conditions: in vivo
[20] = system: L1210; experiment: Antitumor activity against mouse L1210 cells implanted in CDF1 mouse at 3.2 mg/kg, ip qd for 1 to 5 days relative to control; format: functional; conditions: route intraperitoneal
[21] = system: L1210; experiment: Antitumor activity against mouse L1210 cells implanted in CDF1 mouse at 0.4 mg/kg, ip qd for 1 to 5 days relative to control; format: functional; conditions: route intraperitoneal
[22] = system: L1210; experiment: Antitumor activity against mouse L1210 cells implanted in CDF1 mouse assessed as median survival time at 12.8 mg/kg, ip single dose on day 1; format: functional; conditions: route intraperitoneal
[23] = system: Mus musculus; experiment: Toxicity in mouse L1210 cells implanted CDF1 mouse assessed as survivors on day 5 at 3.2 mg/kg, ip single dose on day 1; format: organism-based; set-up: dose 3.2 mg/kg, route intraperitoneal; conditions: in vivo
[24] = system: Mus musculus; experiment: Toxicity in mouse L1210 cells implanted CDF1 mouse assessed as average weight gain at 6.4 mg/kg, ip single dose on day 1; format: organism-based; set-up: dose 6.4 mg/kg, route intraperitoneal; conditions: in vivo
[25] = system: Mus musculus; experiment: Toxicity in mouse L1210 cells implanted CDF1 mouse assessed as average weight gain at 25.6 mg/kg, ip single dose on day 1; format: organism-based; set-up: dose 25.6 mg/kg, route intraperitoneal; conditions: in vivo
[26] = system: Mus musculus; experiment: Toxicity in mouse L1210 cells implanted CDF1 mouse assessed as average weight gain at 0.2 mg/kg, ip qd for 1 to 5 days; format: organism-based; set-up: dose 0.2 mg/kg, route intraperitoneal; conditions: in vivo
[27] = system: L1210; experiment: Antitumor activity against mouse L1210 cells implanted in CDF1 mouse at 1.6 mg/kg, ip qd for 1 to 5 days relative to control; format: functional; conditions: route intraperitoneal
[28] = system: L1210; experiment: Antitumor activity against mouse L1210 cells implanted in CDF1 mouse at 0.8 mg/kg, ip single dose on day 1 relative to control; format: functional; conditions: route intraperitoneal

CC[C@@]1(O)C[C@H](O[C@H]2C[C@H](NC)[C@H](O[C@H]3C[C@H](O)[C@H](O)[C@H](C)O3)[C@H](C)O2)c2c(cc3c(c2O)C(=O)c2c(O)ccc(O)c2C3=O)[C@H]1C(=O)OC [SCHAUNARDIMYCIN]
weight gain [1]: 3.5 g
Activity [2]: 0.7 g
weight gain [3]: 2.5 g
MST [4]: 8 days
Activity [5]: Active
T/C [6]: 133%
T/C [7]: 133%
MST [8]: 7 days
Activity [9]: Active
T/C [10]: 117%
T/C [11]: 100%
Activity [12]: 1.6 g
MST [13]: 7 days
Activity [14]: Active
MST [15]: 6.5 days
MST [16]: 7 days
T/C [17]: 100%
Activity [18]: Active
Activity [19]: Active
T/C [20]: 133%
T/C [21]: 117%
MST [22]: 8 days
Activity [23]: Active
Activity [24]: 2.5 g
Activity [25]: -1.4 g
weight gain [26]: 2.6 g
T/C [27]: 125%
T/C [28]: 100%
